Literature values, collected in article PMC4703502 (Pharmacology & therapeutics, 2015).
Read-outs that look alike come from different tables or passages of the source.

Key:
[1] = tested on: spermatogenesis
[2] = tested on: fertility; settings: ref Tash et al., 2008
[3] = tested on: inhibin B; settings: in vivo; ref Tash et al., 2008a
[4] = tested on: spermatozoa; settings: ref O’Rand & Widgren, 2012

In the case of CC1(C)CC=C(c2cnc3ccccc3c2)c2cc(C(=O)Nc3ccc(C(=O)O)cc3)ccc21 [BMS-195614], the effect on spermatogenesis ([1]; tested in vivo, ref Chung et al., 2013) is listed as “no effect”.

In the case of O=C(O)/C=C/c1nn(Cc2ccc(Cl)cc2Cl)c2cc(C(F)(F)F)ccc12 [Gamendazole], the fertility recovery ([2]; daily treatment with 6 mg/kg during 7 days) is given as 29%, the fertility recovery ([2]; rats, 3 mg/kg single oral dose) is given as “complete recovery” and the infertility ([2]; rats, 3 mg/kg single oral dose) is given as “not complete infertility”. For the same molecule, the “serum levels of inhibin B” value [3] was “fall below measurable levels”.

For O=C(NCCCCCCCCNC(=O)C(Cl)Cl)C(Cl)Cl [WIN 18,446], the effect on spermatogenesis ([1]; ref Amory et al., 2011) is listed as “completely stops spermatogenesis”.

In the case of BMS-189453, the effect on spermatogenesis ([1]; ref Chung et al., 2011) is given as “inhibit spermatogenesis”.

B1: SEMG1: semenogelin, seminal plasma protein that binds EPPIN on the sperm surface (protein, UniProt P04279 24-462, looked up)
Semenogelin-1: QKGGSKGRLPSEFSQFPHGQKGQHYSGQKGKQQTESKGSFSIQYTYHVDANDHDQSRKSQQYDLNALHKTTKSQRHLGGSQQLLHNKQEGRDHDKSKGHFHRVVIHHKGGKAHRGTQNPSQDQGNSPSGKGISSQYSNTEERLWVHGLSKEQTSVSGAQKGRKQGGSQSSYVLQTEELVANKQQRETKNSHQNKGHYQNVVEVREEHSSKVQTSLCPAHQDKLQHGSKDIFSTQDELLVYNKNQHQTKNLNQDQQHGRKANKISYQSSSTEERRLHYGENGVQKDVSQSSIYSQTEEKAQGKSQKQITIPSQEQEHSQKANKISYQSSSTEERRLHYGENGVQKDVSQRSIYSQTEKLVAGKSQIQAPNPKQEPWHGENAKGESGQSTNREQDLLSHEQKGRHQHGSHGGLDIVIIEQEDDSDRHLAQHLNNDRNPLFT
For B1, the “decrease in internal calcium levels” value ([4]; 3μM SEMG1) is given as greater than 30% and the “time to decrease in internal pH” value ([4]; SEMG1 bound to EPPIN on the sperm surface) is given as “less than 1 minute”.
